Test results from ChEMBL document CHEMBL5500349, “Discovery of ganoderic acid A (GAA) PROTACs as MDM2 protein degraders for the treatment of breast cancer” (Eur J Med Chem, 2024).
Calls of active or inactive are those of the source. The calls are words filed in the database; no cut-off is given here.

Experiments:
MDA-MB-231 [1] = assay: Inhibition of cell migration in human MDA-MB-231 cells at 80 uM incubated for 48 hrs by wound healing assay; format: functional, cell-based
[2] = Cytotoxicity against mouse HT-22 cells assessed as cell viability at 100 uM incubated for 48 to 72 hrs by MTT assay; format: toxicity, cell-based; conditions: time 48-72 hrs, read-out: Activity
MDA-MB-231 [3] = assay: Induction of apoptosis in human MDA-MB-231 cells assessed as viable cells at 40 uM incubated for 48 hrs by Annexin-V FITC/PI staining based flow cytometry analysis (reference value: 90.3%); format: functional; conditions: read-out: Activity
[4] = target: T1, von Hippel-Lindau disease tumor suppressor/E3 ubiquitin-protein ligase Mdm2 (Homo sapiens, UniProt Q00987+P40337); assay: Protac activity at VHL/MDM2 in human MDA-MB-231 cells assessed as upregulation of p21 level at 20 to 80 uM after 48 hrs by Western blotting analysis; format: cell-based; conditions: dose 20-80 µM
MDA-MB-231 [5] = assay: Inhibition of cell migration in human MDA-MB-231 cells at 80 uM incubated for 24 hrs by wound healing assay; format: functional, cell-based
MDA-MB-231 [6] = assay: Induction of apoptosis in human MDA-MB-231 cells assessed as late apoptotic cells at 40 uM incubated for 48 hrs by Annexin-V FITC/PI staining based flow cytometry analysis (reference value: 6.04%); format: functional
[7] = Toxicity in zebrafish assessed as appearance of toxic phenotype at < 50 ug/ml; set-up: species or system Danio rerio; conditions: in vivo, dose < 50 µg/ml
MDA-MB-231 [8] = assay: Induction of apoptosis in human MDA-MB-231 cells assessed as viable cells at 20 uM incubated for 48 hrs by Annexin-V FITC/PI staining based flow cytometry analysis (reference value: 90.3%); format: functional; conditions: read-out: Activity
MDA-MB-231 [9] = assay: Induction of apoptosis in human MDA-MB-231 cells assessed as necrotic cells at 40 uM incubated for 48 hrs by Annexin-V FITC/PI staining based flow cytometry analysis (reference value: 0.26%); format: functional
MDA-MB-231 [10] = assay: Antitumor activity against human MDA-MB-231 cells xenografted in zebrafish assessed as inhibition rate at 12.5 ug/ml after 2 days by fluorescence microscopic method; format: functional; set-up: scale not given: the % may be the effect or the level left; conditions: dose 12.5 µg/ml; time 2 day
[11] = target: T1, von Hippel-Lindau disease tumor suppressor/E3 ubiquitin-protein ligase Mdm2; assay: Protac activity at VHL/MDM2 in human MDA-MB-231 cells assessed as reduction in MDM2 protein level at 80 uM pretreated with MG-132 for 2 hrs followed by compound addition and measured after 48 hrs by Western blotting analysis; format: cell-based
MDA-MB-231 [12] = assay: Induction of apoptosis in human MDA-MB-231 cells assessed as viable cells at 80 uM incubated for 48 hrs by Annexin-V FITC/PI staining based flow cytometry analysis (reference value: 90.3%); format: functional; conditions: read-out: Activity
[13] = Toxicity in zebrafish assessed as mortality rate at 6.25 ug/ml; set-up: species or system Danio rerio; conditions: in vivo, at 6.25 µg/mL, read-out: Activity
[14] = Toxicity in zebrafish assessed as mortality rate at 25 ug/ml; set-up: species or system Danio rerio; conditions: in vivo, at 25 µg/mL, read-out: Activity
[15] = Toxicity in zebrafish assessed as mortality rate at 100 ug/ml; set-up: species or system Danio rerio; conditions: in vivo, at 100 µg/mL, read-out: Activity
MDA-MB-231 [16] = assay: Induction of apoptosis in human MDA-MB-231 cells assessed as early apoptotic cells at 20 uM incubated for 48 hrs by Annexin-V FITC/PI staining based flow cytometry analysis (reference value: 3.37%); format: functional
[17] = Toxicity in zebrafish assessed as mortality rate at 12.5 ug/ml; set-up: species or system Danio rerio; conditions: in vivo, at 12.5 µg/mL, read-out: Activity
MDA-MB-231 [18] = assay: Induction of G2/M phase arrest in human MDA-MB-231 cells assessed as decrease in cyclin B1 protein expression at 20 to 80 uM by Western blotting analysis; format: functional, cell-based; conditions: dose 20-80 µM
MDA-MB-231 [19] = assay: Antitumor activity against human MDA-MB-231 cells xenografted in zebrafish assessed as inhibition rate at 25 ug/ml after 2 days by fluorescence microscopic method; format: functional; set-up: scale not given: the % may be the effect or the level left; conditions: dose 25 µg/ml; time 2 day
MDA-MB-231 [20] = assay: Induction of cell cycle arrest in human MDA-MB-231 cells assessed as decrease in number of S phase cells at 80 uM after 48 hrs by PI/RNase staining based flow cytometry analysis; format: functional
[21] = target: T1, von Hippel-Lindau disease tumor suppressor/E3 ubiquitin-protein ligase Mdm2; assay: Protac activity at VHL/MDM2 in human MDA-MB-231 cells assessed as reduction in MDM2 protein level at 80 uM after 48 hrs by Western blotting analysis; format: cell-based; set-up: scale not given: the % may be the effect or the level left
[22] = target: T1, von Hippel-Lindau disease tumor suppressor/E3 ubiquitin-protein ligase Mdm2; assay: Protac activity at VHL/MDM2 in human MDA-MB-231 cells assessed as reduction in MDM2 protein level after 48 hrs by Western blotting analysis; format: cell-based; conditions: dose 20-80 µM
MDA-MB-231 [23] = assay: Antiproliferative activity against human MDA-MB-231 cells assessed as cell viability at 100 uM incubated for 48 to 72 hrs by MTT assay; format: functional; conditions: time 48-72 hrs, read-out: Activity
[24] = target: T2, E3 ubiquitin-protein ligase Mdm2 (Homo sapiens, UniProt Q00987); assay: Binding affinity to MDM2 (unknown origin) by SPR assay
Target sequence in this assay (Q00987 whole entry): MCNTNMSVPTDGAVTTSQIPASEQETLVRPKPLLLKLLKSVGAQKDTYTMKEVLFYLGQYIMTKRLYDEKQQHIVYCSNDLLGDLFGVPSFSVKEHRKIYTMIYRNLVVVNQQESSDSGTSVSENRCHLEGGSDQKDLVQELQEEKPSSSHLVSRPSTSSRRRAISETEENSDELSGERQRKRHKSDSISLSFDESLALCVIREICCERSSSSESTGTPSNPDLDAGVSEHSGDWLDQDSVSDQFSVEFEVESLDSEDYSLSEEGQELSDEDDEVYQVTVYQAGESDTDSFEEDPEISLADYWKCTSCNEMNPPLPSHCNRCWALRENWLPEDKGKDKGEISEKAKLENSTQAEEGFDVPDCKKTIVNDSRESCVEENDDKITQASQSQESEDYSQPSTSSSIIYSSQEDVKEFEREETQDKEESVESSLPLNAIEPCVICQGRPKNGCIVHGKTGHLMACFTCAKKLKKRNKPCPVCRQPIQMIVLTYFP

MDA-MB-231 [25] = assay: Antitumor activity against human MDA-MB-231 cells xenografted in zebrafish assessed as inhibition rate at 50 ug/ml after 2 days by fluorescence microscopic method; format: functional; set-up: scale not given: the % may be the effect or the level left; conditions: dose 50 µg/ml; time 2 day
MDA-MB-231 [26] = assay: Induction of cell cycle arrest in human MDA-MB-231 cells assessed as increase in number of G1 phase cells at 80 uM after 48 hrs by PI/RNase staining based flow cytometry analysis; format: functional
MDA-MB-231 [27] = assay: Induction of apoptosis in human MDA-MB-231 cells assessed as late apoptotic cells at 20 uM incubated for 48 hrs by Annexin-V FITC/PI staining based flow cytometry analysis (reference value: 6.04%); format: functional
MDA-MB-231 [28] = assay: Induction of apoptosis in human MDA-MB-231 cells assessed as reduction in bcl-2/bax ratio at 20 to 40 uM by Western blotting analysis; format: functional, cell-based; conditions: dose 20-40 µM
MDA-MB-231 [29] = assay: Induction of apoptosis in human MDA-MB-231 cells assessed as necrotic cells at 80 uM incubated for 48 hrs by Annexin-V FITC/PI staining based flow cytometry analysis (reference value: 0.26%); format: functional
HepG2 = assay: Antiproliferative activity against human HepG2 cells assessed as cell viability at 100 uM incubated for 48 to 72 hrs by MTT assay; format: functional; conditions: time 48-72 hrs, read-out: Activity
MDA-MB-231 [30] = assay: Induction of cell cycle arrest in human MDA-MB-231 cells assessed as increase in number of G2 phase cells at 80 uM after 48 hrs by PI/RNase staining based flow cytometry analysis; format: functional
MCF7 = assay: Antiproliferative activity against human MCF7 cells assessed as cell viability at 100 uM incubated for 48 to 72 hrs by MTT assay; format: functional; conditions: time 48-72 hrs, read-out: Activity
[31] = Toxicity in zebrafish assessed as mortality rate at 50 ug/ml; set-up: species or system Danio rerio; conditions: in vivo, at 50 µg/mL, read-out: Activity
MDA-MB-231 [32] = assay: Induction of G1/S phase arrest in human MDA-MB-231 cells assessed as increase in p21 mRNA expression at 20 to 80 uM by qRT-PCR analysis; format: functional, cell-based; conditions: dose 20-80 µM
MDA-MB-231 [33] = assay: Induction of apoptosis in human MDA-MB-231 cells assessed as early apoptotic cells at 80 uM incubated for 48 hrs by Annexin-V FITC/PI staining based flow cytometry analysis (reference value: 3.37%); format: functional
SJSA-1 = assay: Antiproliferative activity against human SJSA-1 cells assessed as cell viability at 100 uM incubated for 48 to 72 hrs by MTT assay; format: functional; conditions: time 48-72 hrs, read-out: Activity
MDA-MB-231 [34] = assay: Induction of apoptosis in human MDA-MB-231 cells assessed as late apoptotic cells at 80 uM incubated for 48 hrs by Annexin-V FITC/PI staining based flow cytometry analysis (reference value: 6.04%); format: functional
MDA-MB-231 [35] = assay: Upregulation of p21 expression in human MDA-MB-231 cells at 20 to 80 uM incubated for 48 hrs by immunofluorescence analysis; format: functional, cell-based; conditions: dose 20-80 µM
MDA-MB-231 [36] = assay: Induction of apoptosis in human MDA-MB-231 cells assessed as early apoptotic cells at 40 uM incubated for 48 hrs by Annexin-V FITC/PI staining based flow cytometry analysis (reference value: 3.37%); format: functional
MDA-MB-231 [37] = assay: Downregulation of MDM2 expression in human MDA-MB-231 cells at 20 to 80 uM incubated for 48 hrs by immunofluorescence analysis; format: functional, cell-based; conditions: dose 20-80 µM
[38] = target: T2, E3 ubiquitin-protein ligase Mdm2; assay: Binding affinity to MDM2 (unknown origin) assessed as increase in protein stability incubated for 30 mins by CETSA
Target sequence in this assay (Q00987 whole entry, looked up): as the sequence (Q00987 whole entry) above

MDA-MB-231 [39] = assay: Induction of apoptosis in human MDA-MB-231 cells assessed as necrotic cells at 20 uM incubated for 48 hrs by Annexin-V FITC/PI staining based flow cytometry analysis (reference value: 0.26%); format: functional
[40] = Toxicity in zebrafish assessed as minimum toxic concentration measured after 2 days; set-up: species or system Danio rerio; conditions: in vivo, 48 h, time 2 day
[41] = Toxicity in zebrafish assessed as death at < 50 ug/ml; set-up: species or system Danio rerio; conditions: in vivo, dose < 50 µg/ml

T1 sequence (P40337 whole entry, looked up): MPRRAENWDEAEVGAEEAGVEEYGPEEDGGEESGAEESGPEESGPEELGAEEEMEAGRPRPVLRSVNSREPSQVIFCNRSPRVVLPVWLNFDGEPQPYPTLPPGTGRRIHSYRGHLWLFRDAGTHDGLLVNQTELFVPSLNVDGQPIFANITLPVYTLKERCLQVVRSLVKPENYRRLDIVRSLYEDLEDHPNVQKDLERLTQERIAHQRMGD
T1 sequence (Q00987 whole entry, looked up): as the sequence (Q00987 whole entry) above

With `Cc1ncsc1-c1ccc([C@H](C)NC(=O)[C@@H]2C[C@@H](O)CN2C(=O)[C@@H](NC(=O)CCCCc2cn(CCOCCOCCOCCOCCNC(=O)[C@H](C)CC(=O)C[C@@H](C)[C@H]3C[C@H](O)[C@@]4(C)C5=C(C(=O)C[C@]34C)[C@@]3(C)CCC(=O)C(C)(C)[C@@H]3C[C@@H]5O)nn2)C(C)(C)C)cc1` the inhibition (MDA-MB-231 [1]) was “Active”, the viability at 100 µM [2] was 91.3% and the viability at 40 µM (MDA-MB-231 [3]) was 82.3%. For the same molecule, the Activity [4] was “Active”, the inhibition (MDA-MB-231 [5]) was “Active” and the Activity (MDA-MB-231 [6]) was 10.4%. For the same molecule, the Activity [7] was “Non-Toxic”, the viability at 20 µM (MDA-MB-231 [8]) was 90.1% and the Activity (MDA-MB-231 [9]) was 0.13%. The Activity (MDA-MB-231 [10]) was 16.8%, the Activity [11] was “inactive” and the viability at 80 µM (MDA-MB-231 [12]) was 41.4%. For the same molecule, the mortality at 6.25 ug/ml [13] was 0%, the mortality at 25 ug/ml [14] was 0% and the mortality at 100 ug/ml [15] was 13%. The Activity (MDA-MB-231 [16]) was 4.38%, the mortality at 12.5 ug/ml [17] was 0% and the Activity (MDA-MB-231 [18]) was “Active”. For the same molecule, the Activity (MDA-MB-231 [19]) was 23.4%, the Activity (MDA-MB-231 [20]) was “Active” and the Activity [21] was 51%. For the same molecule, the Activity [22] was “Dose-Dependent Effect”, the viability at 100 µM (MDA-MB-231 [23]) was 16.9% and the Kd [24] was 38.2 µM. The Activity (MDA-MB-231 [25]) was 27.2%, the Activity (MDA-MB-231 [26]) was “Active” and the Activity (MDA-MB-231 [27]) was 5.34%. For the same molecule, the Activity (MDA-MB-231 [28]) was “Active”, the Activity (MDA-MB-231 [29]) was 0.82% and the viability at 100 µM (HepG2) was 92.9%. The Activity (MDA-MB-231 [30]) was “Active”, the viability at 100 µM (MCF7) was 30.6% and the mortality at 50 ug/ml [31] was 0%. The Activity (MDA-MB-231 [32]) was “Active”, the Activity (MDA-MB-231 [33]) was 47.4% and the viability at 100 µM (SJSA-1) was 61.3%. For the same molecule, the Activity (MDA-MB-231 [34]) was 10.4%, the Activity (MDA-MB-231 [35]) was “Active” and the Activity (MDA-MB-231 [36]) was 7.17%. The Activity (MDA-MB-231 [37]) was “Active”, the Activity [38] was “Active” and the Activity (MDA-MB-231 [39]) was 0.21%. The MTC [40] was 50 µg/mL and the Activity [41] was “Non-Toxic”.
